The assay is described as follows: Inhibition of NLRP3-dependent pyroptosis in PMA-differentiated human THP-1 cells assessed as inhibition of LPS/ATP-induced cell death pretreated for 4 hrs with LPS followed by incubation with compound for 1 hr and later treated with ATP for 1.5 hrs by LDH assay.

One molecule from BindingDB's records for doi:10.1016/j.ejmech.2023.115542 (University of Turin, 2023) can be followed below.

Broadly, the IC50 is the concentration at which inhibition is half-maximal.

For the molecule `CCOC(=O)Cn1nc(Cc2ccccc2Cl)oc1=O`, the IC50 stood at 1.55 µM.
